# Tested on: L1210
# Assay: Dose of the drug (mol /kg) providing a 50% life extension in L1210 assays when given at qd 1-5 schedule.
# Assay type: functional, Mus musculus
# Settings: not given
row,Compound,Log 1/D50
1,COP(=O)(Nc1ccc(Nc2c3ccccc3nc3ccccc23)cc1)OC,4.46

# Tested on: L1210
# Assay: Inhibitory concentration to reduce the growth of L1210 cells by 50% after 70 hr.
# Assay type: functional, cell-based
# Settings: Mus musculus, L1210, 70 h
row,IC50,Compound
1,350 nM,Nc1ccc(Nc2c3ccccc3nc3ccccc23)cc1
2,600 nM,CN(C)c1ccc(Nc2c3ccccc3nc3ccccc23)cc1
3,180 nM,CNc1ccc(Nc2c3ccccc3nc3ccccc23)cc1
4,250 nM,CCNc1ccc(Nc2c3ccccc3nc3ccccc23)cc1
5,3.5 nM,O=S(=O)(Nc1ccc(Nc2c3ccccc3nc3ccccc23)cc1)c1ccccc1
6,250 nM,Oc1ccc(Nc2c3ccccc3nc3ccccc23)cc1
7,20 nM,O=C(Nc1ccc(Nc2c3ccccc3nc3ccccc23)cc1)c1ccccc1

row,Compound,IC50
1,CC(=O)Nc1ccc(Nc2c3ccccc3nc3ccccc23)cc1,100 nM
2,COC(=O)Nc1ccc(Nc2c3ccccc3nc3ccccc23)cc1,60 nM
3,CS(=O)(=O)Nc1ccc(Nc2c3ccccc3nc3ccccc23)cc1,35 nM
4,COP(=O)(Nc1ccc(Nc2c3ccccc3nc3ccccc23)cc1)OC,15 nM

# — ChEMBL document CHEMBL1123690, “Redox chemistry of the 9-anilinoacridine class of antitumor agents” (J Med Chem, 1987)
